# How the values were obtained:
# Leishmania donovani [1] = assay: Selectivity ratio of IC50 for NTR2 in promastigote stage of Leishmania donovani MHOM/SD/62/1S-CL2D to IC50 for NTR1 in promastigote stage of Leishmania donovani MHOM/SD/62/1S-CL2D
# [2] = Electrochemical behavior of the compound assessed as redox potential corrected toward normal hydrogen electrode by cyclic voltammetry
# Leishmania donovani [3] = assay: Selectivity ratio of IC50 for wild type promastigote stage of Leishmania donovani MHOM/SD/62/1S-CL2D to IC50 for NTR1 in promastigote stage of Leishmania donovani MHOM/SD/62/1S-CL2D
# [4] = tested on: Trypanosoma brucei brucei; assay: Antitrypanosomal activity against trypomastigote stage of Trypanosoma brucei brucei AnTat 1.9 assessed as decrease in parasite viability after 69 hrs by Alamar Blue assay; format: functional, organism-based; conditions: AnTat 1.9, 69 h
# [5] = Substrate activity at NTR2 in promastigote stage of Leishmania donovani MHOM/SD/62/1S-CL2D assessed as inhibition of parasite growth after 72 hrs by resazurin dye based assay
# [6] = Substrate activity at NTR1 in promastigote stage of Leishmania donovani MHOM/SD/62/1S-CL2D assessed as inhibition of parasite growth after 72 hrs by resazurin dye based assay
# Leishmania donovani [7] = assay: Antileishmanial activity against intracellular amastigote stage of Leishmania donovani infected in human THP1 cells after 120 hrs by giemsa staining based microscopic analysis; format: functional, organism-based; conditions: THP-1, 120 h
# [8] = Cytotoxicity against human HepG2 cells after 72 hrs by MTT assay; format: cell-based
# Leishmania donovani [9] = assay: Antileishmanial activity against wild type promastigote stage of Leishmania donovani MHOM/SD/62/1S-CL2D after 72 hrs by resazurin dye based fluorescence assay; format: functional, organism-based
# Leishmania infantum [10] = assay: Antileishmanial activity against Leishmania infantum axenic amastigotes after 48 hrs by steady-glo luciferase reporter gene assay; format: functional, organism-based
# [11] = Aqueous solubility of the compound at >12.5 uM; format: physicochemical; conditions: buffer
# [12] = Aqueous solubility of the compound at >62.5 uM; format: physicochemical; conditions: buffer
# [13] = Cytotoxicity against human THP1 cells after 72 hrs by MTT assay; format: cell-based; conditions: THP-1 cells
# [14] = Solubility of the compound in RPMI medium at >40 uM; format: physicochemical
# [15] = Toxicity in Swiss mouse assessed as effect on liver by measuring inflammatory cell infiltration at 10 mg/kg, ip administered for 5 days measured measured on day 7 to day 30 post last dose by HES staining based microscopic analysis; format: organism-based; conditions: in vivo, 120 h
# [16] = Solubility of the compound in RPMI medium at >62.5 uM; format: physicochemical
# [17] = Toxicity in Swiss mouse assessed as effect on muscles at 1 mg/kg, ip administered for 5 days measured measured on day 7 to day 30 post last dose by HES staining based microscopic analysis; format: organism-based; conditions: in vivo, 120 h
# [18] = Selectivity index, ratio of CC50 for human HepG2 cells to IC50 for promastigote stage of Leishmania donovani MHOM/IN/00/DEVI; format: toxicity; conditions: read-out: Ratio CC50/IC50
# [19] = Half life in CD-1 mouse hepatic microsomes in presence of NADPH by LC-MS/MS analysis; format: ADME, Microsome; conditions: liver microsomes
# [20] = Mutagenicity in Salmonella typhimurium TA98 at 62.5 to 625 uM preincubated for 1 hr with S9 mix followed by addition of molten top agar and measured 48 hrs post dark incubation by Ames test; format: toxicity, subcellular; conditions: salmonella enterica subsp. enterica serovar typhimurium, s9, 48 h
# [21] = Toxicity in Swiss mouse assessed as fibrosis at injection site 10 mg/kg, ip administered for 5 days measured measured on day 7 to day 30 post last dose by HES staining based microscopic analysis; format: organism-based; conditions: in vivo, 120 h
# [22] = Drug metabolism in CD-1 mouse hepatic microsomes assessed as 6-chloro-8-(4-chlorophenylsulfinyl)-3-nitro-2-(phenylsulfonylmethyl)imidazo[1,2-a]pyridine formation in presence of NADPH by LC-MS/MS analysis; format: ADME, Liver, Microsome
# Leishmania donovani [23] = assay: Potency index, ratio of miltefosine IC50 to test compound IC50 for intracellular amastigote stage of Leishmania donovani infected in human THP1 cells; format: functional
# [24] = Mutagenicity in Salmonella typhimurium TA97a at 62.5 to 625 uM preincubated for 1 hr with S9 mix followed by addition of molten top agar and measured 48 hrs post dark incubation by Ames test; format: toxicity, subcellular; conditions: salmonella enterica subsp. enterica serovar typhimurium, s9, 48 h
# [25] = Toxicity in Swiss mouse assessed as effect on kidney at 1 mg/kg, ip administered for 5 days measured measured on day 7 to day 30 post last dose by HES staining based microscopic analysis; format: organism-based; conditions: in vivo, 120 h
# Trypanosoma cruzi = assay: Antitrypanosomal activity against Trypanosoma cruzi MHOM/BR/78/Silvio cloneX10/7A epimastigotes measured after 4 days by resazurin dye based fluorescence assay; format: functional, organism-based; conditions: 96 h
# Leishmania major [26] = assay: Antileishmanial activity against intracellular amastigote stage of Leishmania major infected in human THP1 cells after 120 hrs by giemsa staining based microscopic analysis; format: functional, organism-based; conditions: THP-1, 120 h
# [27] = Toxicity in Swiss mouse assessed as effect on liver at 1 mg/kg, ip administered for 5 days measured measured on day 7 to day 30 post last dose by HES staining based microscopic analysis; format: organism-based; conditions: in vivo, 120 h
# [28] = Toxicity in Swiss mouse assessed as inflammation at injection site 10 mg/kg, ip administered for 5 days measured measured on day 7 to day 30 post last dose by HES staining based microscopic analysis; format: organism-based; conditions: in vivo, 120 h
# [29] = Mutagenicity in Salmonella typhimurium TA100 at 62.5 to 625 uM preincubated for 1 hr with S9 mix followed by addition of molten top agar and measured 48 hrs post dark incubation by Ames test; format: toxicity, subcellular; conditions: salmonella enterica subsp. enterica serovar typhimurium, s9, 48 h
# [30] = Acute toxicity in Swiss mouse at 1 to 10 mg/kg, ip measured for 24 hrs; format: organism-based; conditions: in vivo
# [31] = Mutagenicity in Salmonella typhimurium TA98 at 62.5 to 625 uM preincubated for 1 hr followed by addition of molten top agar and measured 48 hrs post dark incubation by Ames test; format: toxicity; conditions: salmonella enterica subsp. enterica serovar typhimurium
# [32] = Toxicity in Swiss mouse assessed as effect on brain at 1 mg/kg, ip administered for 5 days measured measured on day 7 to day 30 post last dose by HES staining based microscopic analysis; format: organism-based; conditions: in vivo, 120 h
# [33] = Toxicity in Swiss mouse assessed as effect on heart at 1 mg/kg, ip administered for 5 days measured measured on day 7 to day 30 post last dose by HES staining based microscopic analysis; format: organism-based; conditions: in vivo, 120 h
# Leishmania major [34] = assay: Antileishmanial activity against promastigote stage of Leishmania major MHOM/IL/81/Friedlin after 72 hrs by MTT assay; format: functional, organism-based
# [35] = Lipophilicity, log D of the compound at pH 7.4 by HPLC analysis; format: physicochemical; conditions: buffer
# Trichomonas vaginalis = assay: Antiprotozoal activity against Trichomonas vaginalis TVR87 measured after 48 hrs by trypan blue assay; format: functional, organism-based
# [36] = Toxicity in Swiss mouse assessed as effect on adipose tissue at 1 mg/kg, ip administered for 5 days measured measured on day 7 to day 30 post last dose by HES staining based microscopic analysis; format: organism-based; conditions: in vivo, 120 h
# [37] = Toxicity in Swiss mouse assessed as effect on spleen at 1 mg/kg, ip administered for 5 days measured measured on day 7 to day 30 post last dose by HES staining based microscopic analysis; format: organism-based; conditions: in vivo, 120 h
# HepG2 = assay: Genotoxicity in human HepG2 cells at 1 to 20 uM after 2 to 72 hrs by comet assay; format: toxicity, cell-based; conditions: hepg2, 20 µM
# [38] = Toxicity in Swiss mouse assessed as effect on skin by measuring hypodermic lymph node at 10 mg/kg, ip administered for 5 days measured measured on day 7 to day 30 post last dose by HES staining based microscopic analysis; format: organism-based; conditions: in vivo, 120 h
# [39] = Mutagenicity in Salmonella typhimurium TA102 at 62.5 to 625 uM preincubated for 1 hr followed by addition of molten top agar and measured 48 hrs post dark incubation by Ames test; format: toxicity; conditions: salmonella enterica subsp. enterica serovar typhimurium
# Albumin [40] = molecular target: T1, Albumin (Homo sapiens, UniProt P02768); assay: Binding affinity to human serum albumin after 4 hrs by LC-MS analysis; format: ADME; conditions: read-out: PB (converted)
# [41] = Mutagenicity in Salmonella typhimurium TA102 at 62.5 to 625 uM preincubated for 1 hr with S9 mix followed by addition of molten top agar and measured 48 hrs post dark incubation by Ames test; format: toxicity, subcellular; conditions: salmonella enterica subsp. enterica serovar typhimurium, s9, 48 h
# Leishmania infantum [42] = assay: Potency index, ratio of fexinidazole IC50 to test compound IC50 for Leishmania infantum axenic amastigotes; format: functional
# Plasmodium falciparum = assay: Antiplasmodial activity against chloroquine/proguanil/pyrimethamine-resistant synchronized stage of Plasmodium falciparum K1 after 72 hrs by SYBR green1 staining based spectrophotometric method; format: functional, organism-based; conditions: K1, 72 h
# Albumin [43] = molecular target: T1, Albumin; assay: Binding affinity to human serum albumin assessed as unbound fraction after 4 hrs by LC-MS analysis; format: ADME; conditions: isolated protein
# [44] = Solubility of the compound in RPMI medium at 4 to 6 uM; format: physicochemical
# [45] = Mutagenicity in Salmonella typhimurium TA100 at 62.5 to 625 uM preincubated for 1 hr followed by addition of molten top agar and measured 48 hrs post dark incubation by Ames test; format: toxicity; conditions: salmonella enterica subsp. enterica serovar typhimurium
# [46] = Mutagenicity in Salmonella typhimurium TA97a at 62.5 to 625 uM preincubated for 1 hr followed by addition of molten top agar and measured 48 hrs post dark incubation by Ames test; format: toxicity; conditions: salmonella enterica subsp. enterica serovar typhimurium
# [47] = Toxicity in Swiss mouse assessed as effect on lungs at 1 mg/kg, ip administered for 5 days measured measured on day 7 to day 30 post last dose by HES staining based microscopic analysis; format: organism-based; conditions: in vivo, 120 h
# Leishmania donovani [48] = assay: Antileishmanial activity against promastigote stage of Leishmania donovani MHOM/IN/00/DEVI after 72 hrs by MTT assay; format: functional, organism-based
# T1 sequence (P02768 whole entry): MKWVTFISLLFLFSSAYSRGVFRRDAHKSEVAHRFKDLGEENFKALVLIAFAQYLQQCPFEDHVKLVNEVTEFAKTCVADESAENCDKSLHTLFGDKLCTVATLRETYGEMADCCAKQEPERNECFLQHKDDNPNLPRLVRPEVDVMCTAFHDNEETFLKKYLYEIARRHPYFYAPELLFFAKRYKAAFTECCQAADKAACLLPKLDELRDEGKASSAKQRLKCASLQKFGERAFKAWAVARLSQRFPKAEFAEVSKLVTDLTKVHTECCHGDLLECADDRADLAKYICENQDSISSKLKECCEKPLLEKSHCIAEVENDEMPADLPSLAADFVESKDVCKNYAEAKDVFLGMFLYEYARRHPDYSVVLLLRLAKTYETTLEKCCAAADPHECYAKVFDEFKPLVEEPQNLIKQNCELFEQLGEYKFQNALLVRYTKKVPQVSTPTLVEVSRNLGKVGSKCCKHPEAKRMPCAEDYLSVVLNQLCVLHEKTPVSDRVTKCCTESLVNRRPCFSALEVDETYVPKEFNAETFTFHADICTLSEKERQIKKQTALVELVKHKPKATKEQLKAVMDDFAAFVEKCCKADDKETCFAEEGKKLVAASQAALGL
structure (smiles),measurement,setting,value
O=[N+]([O-])c1c(CS(=O)(=O)c2ccccc2)nc2c(S(=O)(=O)c3ccc(Cl)cc3)cc(Cl)cn12,Ratio IC50,Leishmania donovani [1],8
same,Activity,[2],-0.59 V
same,Ratio IC50,Leishmania donovani [3],8
same,IC50,[4],1000 nM
same,IC50,[5],700 nM
same,IC50,[6],80 nM
same,IC50,Leishmania donovani [7],1300 nM
same,CC50 at 72 h,[8],> 12500 nM
same,IC50,Leishmania donovani [9],600 nM
same,IC50,Leishmania infantum [10],3700 nM
same,solubility,[11],Insoluble
Nc1c(CS(=O)(=O)c2ccccc2)nc2c(Sc3ccc(Cl)cc3)cc(Cl)cn12,IC50,[4],10600 nM
same,IC50,Leishmania donovani [7],124000 nM
same,solubility,[12],Insoluble
same,CC50 at 72 h,[8],> 62500 nM
same,IC50,Leishmania infantum [10],31600 nM
CCCCCCCCCCCCCCCCOP(=O)([O-])OCC[N+](C)(C)C [MILTEFOSINE],CC50 at 72 h,[13],> 40000 nM
same,solubility,[14],Insoluble
O=[N+]([O-])c1c(CS(=O)(=O)c2ccccc2)nc2c(Sc3ccc(Cl)cc3)cc(Cl)cn12,Activity,[15],Non-Toxic
same,solubility,[16],Insoluble
same,Activity,[17],Non-Toxic
same,selectivity ratio,[18],> 100
same,half-life,[19],3 min
same,Activity,[20],Non-Toxic
same,Activity,[21],Non-Toxic
same,Drug metabolism,[22],Metabolite_Detected
same,Ratio IC50,Leishmania donovani [23],3
same,Activity,[24],Non-Toxic
same,Ratio IC50,Leishmania donovani [1],8
same,Activity,[25],Non-Toxic
same,IC50,Trypanosoma cruzi,2200 nM
same,IC50,Leishmania major [26],2100 nM
same,Activity,[27],Non-Toxic
same,Activity,[28],Non-Toxic
same,Activity,[2],-0.63 V
same,Ratio IC50,Leishmania donovani [3],8
same,Activity,[29],Non-Toxic
same,IC50,[4],1300 nM
same,IC50,[5],300 nM
same,CC50 at 72 h,[13],> 62500 nM
same,Activity,[30],Non-Toxic
same,IC50,[6],33 nM
same,Activity,[31],Non-Toxic
same,Activity,[32],Non-Toxic
same,Activity,[33],Non-Toxic
same,IC50,Leishmania major [34],1300 nM
same,logD,[35],4.26
same,IC50,Leishmania donovani [7],1000 to 1300 nM
same,IC50,Trichomonas vaginalis,4600 to 5000 nM
same,Activity,[36],Non-Toxic
same,Activity,[37],Non-Toxic
same,Activity,HepG2,Non-Toxic
same,Activity,[38],Non-Toxic
same,Activity,[39],Non-Toxic
same,CC50 at 72 h,[8],> 100000 nM
same,fraction unbound at 4 h,Albumin [40],0.0005
same,Activity,[41],Non-Toxic
same,Ratio IC50,Leishmania infantum [42],2
same,IC50,Plasmodium falciparum,19000 nM
same,logFu,Albumin [43],-3.28
same,IC50,Leishmania donovani [9],260 nM
same,solubility,[44],Soluble
same,Activity,[45],Non-Toxic
same,Activity,[46],Non-Toxic
same,IC50,Leishmania infantum [10],1700 nM
same,Activity,[47],Non-Toxic
same,IC50,Leishmania donovani [48],1000 nM

# — ChEMBL document CHEMBL4382286, “Nongenotoxic 3-Nitroimidazo[1,2-a]pyridines Are NTR1 Substrates That Display Potent in Vitro Antileishmanial Activity” (ACS Med Chem Lett, 2019)
